# Assay results taken from patent publication US4218471A, “Process for the treatment of humans suffering from undesired urotoxic side effects caused by cytostatically active alkylating agents” (Asta-Werke Aktiengesellschaft Chemische Fabrik, priority 1978, dated 1980).
# Structures can show the parent of a compound that is named as a salt.
# Columns and labels:
# [1] = system: undesired urotoxic side effects caused by cytostatically active alkylating agents; settings: background, cited from earlier work; for effect of introducing solutions into the urinary bladder by catheter: instillation, in particular cytostatics at very high dosages; for protective activity against cytostatically active alkylating agents: cysteine compared with salts of mercapto alkane sulfonic acids, cystine = corresponding disulfide
# [2] = examination of the urine upon cytotoxic activity / cytostatically active metabolites after administration of ifosfamide; assay type: in vivo, human; settings: Example 4: same combination with sodium salt of 2-mercapto ethane sulfonic acid
# Method: (§1) In accordance with the known practice of therapy, a patient and suffering from a cancer of the ovary, at first is subjected to irradiation and thereafter is treated with ifosfamide [i.e. 2-(N-2-chloroethyl-amino)-3-(2-chloroethyl)-2-oxo-1,3,2-oxazaphosphorinane] at 5 times per day, each time with 60 mg./kg. intravenously and at 5 subsequent days. […] After a recovery period of 14 days the therapy is repeated. However, 35 mg./kg. of the sodium salt of 2-mercapto ethane sulfonic acid is administered intravenously and simultaneously with each dose of 60 mg./kg. of ifosfamide, 60, 120 and, respectively, 180 minutes after this intravenous injection 45 mg. of the disodium salt of 2,2'-dithiodi-(ethanesulfonic acid) each time are administered to the patient. The patient is controlled daily for micro- and macrohematuria and for albuminuria. […] The examination of the urine upon cytotoxic activity at varying times after administration of ifosfamide also was negative.
# [3] = system: kidneys, urinary tracts and urinary bladder; test: urotoxic side effects in cancer patients treated with ifosfamide (hematuria, albuminuria, damage to kidney and urinary bladder); assay type: in vivo, human; settings: for hematuria under ifosfamide therapy without thiol/disulfide protection: 5 times per day, 5 days
# Method: In accordance with the known practice of therapy a patient and suffering from a theratoid carcinoma of the testicle, at first is subjected to irradiation and thereafter is treated with ifosfamide [i.e. 2-(N-2-chloroethyl-amino)-3-(2-chloroethyl)-2-oxo-1,3,2-oxazaphosphorinane] at 5 times per day, each time with 60 mg./kg. intravenously and at 5 subsequent days. The patient is simultaneously hydrated by administration of 4 liters of water spread over the day and is alkalinized by administration of hexapotassium hexasodium pentacitrate hydrate complex. […] This necessitated immediate rupture of the therapy. After a recovery period of 14 days, the therapy is repeated. However, 60 mg/kg. of the disodium salt of 2,2'-dithiodi-(ethane sulfonic acid) is administered intravenously and simultaneously with each dose of 60 mg/kg. of ifosfamide. The patient is controlled daily for micro- and […] and for albuminuria.
# In another patient suffering from the same tumor, the therapy at first is started with the oral administration of 60 mg./kg. of the disodium salt of 2.2'-dithiodi-(ethane sulfonic acid). Two hours thereafter, 60 mg./kg. of ifosfamide are administered intravenously. The same treatment, i.e. the combination of an oral preadministration of the disodium salt of 2,2'-dithiodi-(ethane sulfonic acid) and a subsequent intravenous administration of 60 mg./kg. of ifosfamide is repeated at 5 subsequent days. […] In both the above treatments a moderate hydration (2 liters per day) has been carried out. The treatment rendered superfluous alkalinization as well as the most burdensome instillation of mercapto group containing compounds into the bladder of the patient by means of a catheter.
# According to the general experience with such patients, there occurs very readily […] despite application of all known prophylactic treatments such as hydration, alkalinization or instillation of mercapto group containing compounds into the urinary bladder.
# as §1
# The same protective treatment was effected with the same favourable results in patients suffering from other cancer deceases such as parvicellular bronchial carcinoma or pancreatic carcinoma.
smiles,measurement,setting,value
CC(=O)N[C@@H](CS)C(=O)O [N-acetylcysteine],clinical effectiveness of the instillation prophylaxis,[1]; instillation into urinary bladder with cyclophosphamide and ifosfamide at very high dosages,by no means was satisfactory
same,effect of introducing solutions into the urinary bladder by catheter,[1],very limited
N[C@@H](CS)C(=O)O [cysteine],protective activity against cytostatically active alkylating agents,[1],limited but distinct protective activity
same,effect of introducing solutions into the urinary bladder by catheter,[1],very limited
N[C@@H](CSSC[C@H](N)C(=O)O)C(=O)O [cystine],protective activity against cytostatically active alkylating agents,[1],does not have any such protective activity
"O=S(=O)(O)CCSSCCS(=O)(=O)O [disodium salt of 2,2'-dithiodi-(ethanesulfonic acid)]",cytostatically active metabolites in the urine,[2]; after ifosfamide,No cytostatically active metabolites were found in the urine
same,cytotoxic activity of the urine,[2]; varying times after ifosfamide,negative
same,"erythrocytes, albumina or granular cylindrical cells in the urine","[3]; Example 1: 60 mg/kg i.v. simultaneously with each dose of 60 mg/kg ifosfamide, same patient after 14 days recovery","At no time during the treatment erythrocytes, albumina or granular cylindrical cells were found in the urine of the patient"
same,"damage to kidney or urinary bladder, hematuria, albumina or granular cylindrical cells in the urine","[3]; Example 2: 60 mg/kg oral, two hours before ifosfamide 60 mg/kg i.v., 5 subsequent days, moderate hydration 2 liters per day",no indication of any damage to the kidney or the urinary bladder or of hematuria or of albumina or granular cylindrical cells in the urine of the patient at any time during the treatment
same,damage to the kidneys and the urinary bladder,"[3]; Example 3: 60 mg/kg i.v. simultaneously with ifosfamide 60 mg/kg i.v. single dose over 5 days, patient sensibilized by regional radiotherapy",there did not occur any damage to the kidneys and the urinary bladder
same,hematuria or albuminuria,"[3]; Example 4: 35 mg/kg sodium salt of 2-mercapto ethane sulfonic acid i.v. simultaneously with ifosfamide 60 mg/kg, then 45 mg disodium salt of 2,2'-dithiodi-(ethanesulfonic acid) at 60, 120 and 180 minutes",no indication of hematuria or albuminuria
"O=P1(NCCCl)OCCCN1CCCl (stereo not shown) [ifosfamide, 2-(N-2-chloroethyl-amino)-3-(2-chloroethyl)-2-oxo-1,3,2-oxazaphosphorinane]",hematuria under ifosfamide therapy without thiol/disulfide protection,"[3]; Example 1: ifosfamide 60 mg/kg i.v., with hydration 4 liters and alkalinization, testicular carcinoma patient",macrohematuria already on the fourth day
same,hematuria under ifosfamide therapy without thiol/disulfide protection,"[3]; Example 4: ifosfamide 60 mg/kg i.v., with hydration and alkalinization, patient with cancer of the ovary",microhematuria
